Reference: PMC10318822, “Phase 1 dose-escalation study to evaluate the safety, tolerability, pharmacokinetics, and anti-tumor activity of FCN-159 in adults with neurofibromatosis type 1-related unresectable plexiform neurofibromas” (BMC Medicine, 2023)

Tested on: adult patients with NF1-related PN
Test: Phase I dose-escalation: DLT, MTD, RP2D and drug-related TEAEs (CTCAE v5.0)
Description: This is a multicenter, open-label, single-arm, non-randomized, phase I dose-escalation trial to evaluate the safety, tolerability, pharmacokinetic (PK), and anti-tumor activity of orally administered FCN-159 in adult patients with NF1 (NCT04954001). Phase I commenced with dose escalation in adult patients following a standard 3 + 3 design (Supplementary Table S1) to determine the maximum tolerated dose (MTD) of FCN-159 administered daily under fasting conditions (defined as no food or drink 1 h before and 2 h after each dose) in 28-day cycles. Study drug was dispensed at the study site and patient adherence was monitored by the records of drug dispensation and return. Patients were on treatment until PD, death, patient's voluntary withdrawal from study treatment, or study termination. The study was followed for 2 years after the last patient in. The starting dose was 4 mg, escalating in cohorts of at least three evaluable patients at 6 mg, 8 mg, and 12 mg until the MTD was determined. The starting dose in this study was determined based on available data from a phase 1a, first-in-human study of FCN-159 in patients with advanced NRAS ^mut+ melanoma at the time of study design. […] Dose expansion at a likely RP2D level enrolled approximately six patients. The highest dose level with a dose-limiting toxicity (DLT) incidence rate ≤ 33% (0/3 or 1/6 patients) was to be considered the MTD. If patients experienced grade ≥ 3 and/or unacceptable toxic events that were considered as at least possibly related to the study treatment, the study treatment was discontinued and supportive treatment was given in accordance with local treatment routines. If the toxicity returned to grade ≤ 2 within 28 days after the occurrence, and there was no progression on patients’ conditions or the investigator believed that patients could benefit from the study treatment, the original dose could be maintained or reduced after discussion with medical monitor. After completion of the dose escalation part of the study, PK, efficacy, safety, and tolerability data were analyzed to select the RP2D.
Primary endpoints of the study were the DLT incidence rate, MTD, and RP2D. Secondary endpoints included other safety assessments, imaging tumor response (complete response [CR], PR, stable disease [SD], or progressive disease [PD]), and PK parameters of FCN-159. Adverse events were graded per CTCAE v5.0.
All patients underwent a complete medical history, physical examination, Eastern Cooperative Oncology Group (ECOG) assessment, and laboratory analysis of test results. Drug-related TEAEs, serious adverse events (SAEs), TEAEs of grade ≥ 3 toxicity, and TEAEs leading to drug discontinuation were reviewed on an ongoing basis. Efficacy was assessed by radiologic scans and clinical assessment. Tumor assessments per Response Evaluation in Neurofibromatosis Schwannomatosis criteria were performed by investigators using MRI volumetric analysis every 4 cycles within the first 2 years (± 7 days) and every 6 cycles after 2 years (± 14 days) until PD, death, patient's voluntary withdrawal from study treatment, or study termination. MRI sequences of […], T1- and T2-weighted sequences were chosen and the software of Extended Brilliance Workspace, SIGNA Premier and uExceed were used for MRI volumetric analysis. The same software was used for all tumor assessments at baseline and subsequent assessed timepoints of the same patient. Pain was assessed by an 11-point numerical rating scale (NRS-11).
The sample size for the dose-escalation study was estimated to be 24 based on the 3 + 3 method. Safety was analyzed in patients who received at least one dose of FCN-159 and had at least one safety assessment. DLT was assessed in the DLT analysis set, defined as patients who were enrolled in the dose-escalation study and met the DLT evaluation criteria.

## Cn1c(=O)c(F)c(Nc2ccc(I)cc2F)c2c(=O)n(C3CC3)nc(-c3cccc(NS(=O)(=O)C4CC4)c3)c21 [FCN-159]
12 mg (N = 4)
  Drug-related TEAE: Urticaria: 1 (25.0) n (%)
  Drug-related TEAE: Vision blurred: 0 n (%)
  Drug-related TEAE: Visual acuity reduced: 0 n (%)
  Drug-related TEAE: pH urine decreased: 0 n (%)
  Drug-related TEAE: pH urine increased: 0 n (%)
  Subjects with any drug-related TEAE: 4 (100) n (%)
12 mg, 3 of 3 patients
  Patients with DLT (grade 3 folliculitis): 100%
Total (N = 19)
  Drug-related TEAE: Abdominal pain: 1 (5.3) n (%)
  Drug-related TEAE: Acne: 1 (5.3) n (%)
  Drug-related TEAE: Acne pustular: 1 (5.3) n (%)
  Drug-related TEAE: Alanine aminotransferase increased: 2 (10.5) n (%)
  Drug-related TEAE: Albumin globulin ratio decreased: 1 (5.3) n (%)
  Drug-related TEAE: Alopecia: 5 (26.3) n (%)
  Drug-related TEAE: Amylase increased: 1 (5.3) n (%)
  Drug-related TEAE: Anemia: 1 (5.3) n (%)
  Drug-related TEAE: Aortic dilatation: 1 (5.3) n (%)
  Drug-related TEAE: Aspartate aminotransferase increased: 2 (10.5) n (%)
  Drug-related TEAE: Asthenia: 1 (5.3) n (%)
  Drug-related TEAE: Beta globulin decreased: 1 (5.3) n (%)
  Drug-related TEAE: Beta globulin increased: 2 (10.5) n (%)
  Drug-related TEAE: Blood alkaline phosphatase increased: 6 (31.6) n (%)
  Drug-related TEAE: Blood bilirubin increased: 5 (26.3) n (%)
  Drug-related TEAE: Blood creatine phosphokinase increased: 3 (15.8) n (%)
  Drug-related TEAE: Blood fibrinogen increased: 4 (21.1) n (%)
  Drug-related TEAE: Blood lactate dehydrogenase increased: 4 (21.1) n (%)
  Drug-related TEAE: Blood pressure increased: 1 (5.3) n (%)
  Drug-related TEAE: Blood urea increased: 4 (21.1) n (%)
  Drug-related TEAE: Blood uric acid increased: 2 (10.5) n (%)
  Drug-related TEAE: Breath odor: 3 (15.8) n (%)
  Drug-related TEAE: Capillary disorder: 1 (5.3) n (%)
  Drug-related TEAE: Constipation: 3 (15.8) n (%)
  Drug-related TEAE: Decreased appetite: 1 (5.3) n (%)
  Drug-related TEAE: Dermatitis acneiform: 1 (5.3) n (%)
  Drug-related TEAE: Diarrhea: 1 (5.3) n (%)
  Drug-related TEAE: Drug eruption: 5 (26.3) n (%)
  Drug-related TEAE: Dyslipidemia: 2 (10.5) n (%)
  Drug-related TEAE: Ejection fraction decreased: 1 (5.3) n (%)
  Drug-related TEAE: Electrocardiogram QT prolonged: 1 (5.3) n (%)
  Drug-related TEAE: Electrocardiogram abnormal: 2 (10.5) n (%)
  Drug-related TEAE: Epistaxis: 2 (10.5) n (%)
  Drug-related TEAE: Folliculitis: 9 (47.4) n (%)
  Drug-related TEAE: Functional gastrointestinal disorder: 1 (5.3) n (%)
  Drug-related TEAE: Gamma-glutamyltransferase increased: 1 (5.3) n (%)
  Drug-related TEAE: Gingival pain: 1 (5.3) n (%)
  Drug-related TEAE: Hyperlipidemia: 1 (5.3) n (%)
  Drug-related TEAE: Hypertension: 1 (5.3) n (%)
  Drug-related TEAE: Hypoalbuminemia: 1 (5.3) n (%)
  Drug-related TEAE: Hypocalcemia: 2 (10.5) n (%)
  Drug-related TEAE: Hypophosphatemia: 1 (5.3) n (%)
  Drug-related TEAE: Hypoproteinemia: 1 (5.3) n (%)
  Drug-related TEAE: Immunoglobulins increased: 4 (21.1) n (%)
  Drug-related TEAE: Impetigo: 1 (5.3) n (%)
  Drug-related TEAE: Left atrial enlargement: 1 (5.3) n (%)
  Drug-related TEAE: Lipoprotein abnormal: 1 (5.3) n (%)
  Drug-related TEAE: Malaise: 1 (5.3) n (%)
  Drug-related TEAE: Menstrual disorder: 2 (10.5) n (%)
  Drug-related TEAE: Mitral valve incompetence: 4 (21.1) n (%)
  Drug-related TEAE: Mouth ulceration: 4 (21.1) n (%)
  Drug-related TEAE: Muscular weakness: 1 (5.3) n (%)
  Drug-related TEAE: Oedema peripheral: 1 (5.3) n (%)
  Drug-related TEAE: Pain in extremity: 1 (5.3) n (%)
  Drug-related TEAE: Paronychia: 6 (31.6) n (%)
  Drug-related TEAE: Prealbumin decreased: 1 (5.3) n (%)
  Drug-related TEAE: Protein urine present: 5 (26.3) n (%)
  Drug-related TEAE: Pruritus: 1 (5.3) n (%)
  Drug-related TEAE: QRS axis abnormal: 4 (21.1) n (%)
  Drug-related TEAE: Rash: 3 (15.8) n (%)
  Drug-related TEAE: Sinus arrhythmia: 1 (5.3) n (%)
  Drug-related TEAE: Sinus bradycardia: 1 (5.3) n (%)
  Drug-related TEAE: Sinusitis: 1 (5.3) n (%)
  Drug-related TEAE: Skin exfoliation: 1 (5.3) n (%)
  Drug-related TEAE: Specific gravity urine increased: 5 (26.3) n (%)
  Drug-related TEAE: Stomatitis: 7 (36.8) n (%)
  Drug-related TEAE: Supraventricular extrasystoles: 1 (5.3) n (%)
  Drug-related TEAE: Total bile acids increased: 3 (15.8) n (%)
  Drug-related TEAE: Tricuspid valve incompetence: 3 (15.8) n (%)
  Drug-related TEAE: Urinary occult blood positive: 3 (15.8) n (%)
  Drug-related TEAE: Urinary sediment present: 1 (5.3) n (%)
  Drug-related TEAE: Urinary tract infection: 1 (5.3) n (%)
  Drug-related TEAE: Urine ketone body present: 2 (10.5) n (%)
  Drug-related TEAE: Urobilinogen urine increased: 5 (26.3) n (%)
  Drug-related TEAE: Urticaria: 1 (5.3) n (%)
  Drug-related TEAE: Vision blurred: 1 (5.3) n (%)
  Drug-related TEAE: Visual acuity reduced: 1 (5.3) n (%)
  Drug-related TEAE: pH urine decreased: 3 (15.8) n (%)
  Drug-related TEAE: pH urine increased: 2 (10.5) n (%)
  Subjects with any drug-related TEAE: 19 (100) n (%)
All dose levels
  Patients with grade 3 drug-related folliculitis: five
  Patients with grade 3 drug-related paronychia: four
All dose levels, n = 19
  Patients with FCN-159-related TEAEs: 100%
All dose levels, nine of 19 patients
  Patients with grade 3 study-drug-related TEAEs: 47.4%
All patients, n = 1/19
  Blurred vision: 5.3%
  Reduced visual acuity: 5.3%
All patients, n = 4/19
  Drug-related TEAE mouth ulceration: 21.1%
All patients, n = 6/19
  Drug-related TEAE increased blood alkaline phosphatase: 31.6%
  Drug-related TEAE paronychia: 31.6%
All patients, n = 7/19
  Drug-related TEAE stomatitis: 36.8%
All patients, n = 9/19
  Drug-related TEAE folliculitis: 47.4%
All patients, twelve patients
  Drug-related gastrointestinal disorders: 63.2%
All patients, two patients
  Patients with eye disorders: 10.5%
daily
  Recommended phase II dose (RP2D): 8 mg
daily, 28-day cycles, fasting
  Maximum tolerated dose (MTD): 8 mg
In vivo
  Deaths during the study: No patients died
Mainly due to grade 3 paronychia and folliculitis
  Dose reduction: 42.1%
paronychia, 6 mg dose
  Grade 3 drug-related TEAE in patients receiving doses below the MTD: Only one
Rhegmatogenous retinal detachment, present at baseline, considered unrelated to the study drug
  SAE during treatment that led to drug withdrawal: One patient
